# Test results as given in patent US20180042875A1, “COMPOUND USE IN PROMOTING ENERGY EXPENDITURE” (NESTEC S.A., priority 2015, published 2018).
# Key:
# [1] = Food intake (tolerance / food aversion) of mice on supplemented diet; type: in vivo
# Protocol: Mice were fed a low fat diet supplemented with either water (Veh) or quinic acid at low dose (25 mg/(kg*day)) or high dose (HD, 100 mg/(kg*day). Food intake was calculated between 12 and 18 weeks of age by weighing the food placed on the tray of the cage at the start of the week and the amount remaining 5 days later.
# Mice were fed a high fat diet (60% fat) supplemented with either water (Veh) or quinic acid at low dose (25 mg/(kg*day)) or high dose (HD, 100 mg/(kg*day). Calculations for food intake were made in the same manner as for mice on chow diet.
# Powder low fat diet (LFD; Research Diets Inc.; Ref: D12450J) was reconstituted into ˜20 gram pellets using 100 ml of water/kg of food. In addition to normal low fat diet pellets, two additional groups were made by adding quinic acid (QA) to the water used for reconstitution. A first group (low dose) was created, where 0.25 g of QA were added per Kg of food (this means, 0.25 grams per 100 ml of water). In a second group (high dose), 1 g of QA was added per Kg of food (this means, 1 gram per […] of water). […]
# At 10 weeks of age, 60 male mice were randomly distributed in 6 groups (n=10 per group) and provided the different diets: LFD (Control, Low Dose and High Dose) or HFD (Control, Low Dose and High Dose). […] During this time, body weight and food intake was monitored weekly.
# [2] = Body weight evolution on chow or high-fat diet; type: in vivo, mice; settings: 25 mg/(kg*day), FIG. 3
# Protocol: Body weight evolution on mice fed on chow diet or high-fat diet, supplemented with either water (Veh) or Quinic Acid (25 mg/(kg*day) was calculated. At 10 weeks of age, 60 male mice were randomly distributed in 6 groups (n=10 per group) and provided the different diets: LFD (Control, Low Dose and High Dose) or HFD (Control, Low Dose and High Dose). Mice were maintained for 8 weeks on their corresponding diets before phenotyping took place. During this time, body weight and food intake was monitored weekly.
# [3] = Body lean and fat mass composition by Echo-MRI; type: in vivo, mice; settings: 25 mg/(kg*day), FIG. 4
# Protocol: Body lean and fat mass composition of 18 week-old mice fed on chow diet or high-fat diet, supplemented with either water (Veh) or Quinic Acid (25 mg/(kg*day) was measured by nuclear magnetic resonance using an Echo-Magnetic Resonance Imaging (Echo-MRI) system (Echo Medical System LCC).
# [4] = Oxygen consumption and RER in CLAMS (indirect calorimetry); type: in vivo; settings: 18 week-old mice on chow diet, 25 mg/(kg*day), dark phase, FIG. 6
# [5] = Glucose excursion after intraperitoneal glucose (glucose tolerance); type: in vivo; settings: 12 hr fasted 20 week-old mice on chow diet or HFD, 25 mg/(kg*day), i.p. glucose 2 g/kg, FIG. 7
# Protocol: Glucose excursion curves were determined after an intraperitoneal injection of glucose (2 g/kg) on 12 hr fasted 20 week-old mice fed a chow diet or a HFD, supplemented with either water (Veh) or Quinic Acid (25 mg/(kg*day).
# [6] = Glucose excursion after intraperitoneal insulin (insulin response); type: in vivo, mice; settings: 6 hr fast, 25 mg/(kg*day)
# Protocol: Glucose excursion curves were determined after an intraperitoneal injection of insulin (0.3 U/Kg) after a 6 hr fast on 22 week-old mice fed a chow diet, supplemented with either water (Veh) or Quinic Acid (25 mg/(kg*day). Glucose excursion curves were determined after an intraperitoneal injection of insulin (0.75 U/Kg) after a 6 hr fast on 22 week-old mice fed a high-fat diet, supplemented with either water (Veh) or Quinic Acid (25 mg/(kg*day).
# [7] = Rectal temperature in cold room (thermogenic function); type: in vivo; settings: 24-week old mice on chow diet, 25 mg/(kg*day), cold room 6° C., no food, measured every hour, FIG. 10
# Protocol: Rectal temperature was measured at 8 a.m. (t=0) on 24-week old mice fed a chow diet, supplemented with either water (Veh) or Quinic Acid (25 mg/(kg*day). Then, mice were placed on a cold room (6° C.), with no access to food, and rectal temperature was measured every hour.
# [8] = Treadmill endurance, increasing speed protocol; type: in vivo; settings: 26 week-old high-fat fed mice, 25 mg/(kg*day), FIG. 11
# Protocol: 26 week-old mice were place on a treadmill and endurance was evaluated by using a increasing speed protocol, as described previously (Lagouge et al., 2006, PMID: 17112576). The tests were performed on low and high fat-fed mice supplemented with either water (Veh) or Quinic Acid (25 mg/(kg*day).
# α-amylase = biological target: T1, α-amylase (Sus scrofa, UniProt P00690); settings: compared to caffeic and chlorogenic acids (Narita et al. 2009); cited from earlier work
# T1 sequence (P00690 16-511): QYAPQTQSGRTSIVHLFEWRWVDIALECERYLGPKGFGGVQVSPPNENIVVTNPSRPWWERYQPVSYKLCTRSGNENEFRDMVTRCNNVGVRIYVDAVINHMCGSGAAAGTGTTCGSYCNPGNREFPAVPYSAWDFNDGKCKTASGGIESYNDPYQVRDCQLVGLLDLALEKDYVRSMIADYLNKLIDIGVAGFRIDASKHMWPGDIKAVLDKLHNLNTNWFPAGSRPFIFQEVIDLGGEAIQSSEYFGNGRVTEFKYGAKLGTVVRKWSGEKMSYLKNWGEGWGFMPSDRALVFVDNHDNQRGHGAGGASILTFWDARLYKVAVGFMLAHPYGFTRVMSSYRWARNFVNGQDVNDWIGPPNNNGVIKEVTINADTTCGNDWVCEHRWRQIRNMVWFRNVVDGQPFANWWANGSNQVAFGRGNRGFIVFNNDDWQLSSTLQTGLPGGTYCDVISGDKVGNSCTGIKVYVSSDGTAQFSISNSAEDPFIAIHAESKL
# maltase = settings: enzyme involved in digestion of carbohydrates; cited from earlier work
# sucrase = sucrase (Homo sapiens, UniProt P14410); settings: enzyme involved in digestion of carbohydrates; cited from earlier work
# Sequence of sucrase (P14410 whole entry, species assumed): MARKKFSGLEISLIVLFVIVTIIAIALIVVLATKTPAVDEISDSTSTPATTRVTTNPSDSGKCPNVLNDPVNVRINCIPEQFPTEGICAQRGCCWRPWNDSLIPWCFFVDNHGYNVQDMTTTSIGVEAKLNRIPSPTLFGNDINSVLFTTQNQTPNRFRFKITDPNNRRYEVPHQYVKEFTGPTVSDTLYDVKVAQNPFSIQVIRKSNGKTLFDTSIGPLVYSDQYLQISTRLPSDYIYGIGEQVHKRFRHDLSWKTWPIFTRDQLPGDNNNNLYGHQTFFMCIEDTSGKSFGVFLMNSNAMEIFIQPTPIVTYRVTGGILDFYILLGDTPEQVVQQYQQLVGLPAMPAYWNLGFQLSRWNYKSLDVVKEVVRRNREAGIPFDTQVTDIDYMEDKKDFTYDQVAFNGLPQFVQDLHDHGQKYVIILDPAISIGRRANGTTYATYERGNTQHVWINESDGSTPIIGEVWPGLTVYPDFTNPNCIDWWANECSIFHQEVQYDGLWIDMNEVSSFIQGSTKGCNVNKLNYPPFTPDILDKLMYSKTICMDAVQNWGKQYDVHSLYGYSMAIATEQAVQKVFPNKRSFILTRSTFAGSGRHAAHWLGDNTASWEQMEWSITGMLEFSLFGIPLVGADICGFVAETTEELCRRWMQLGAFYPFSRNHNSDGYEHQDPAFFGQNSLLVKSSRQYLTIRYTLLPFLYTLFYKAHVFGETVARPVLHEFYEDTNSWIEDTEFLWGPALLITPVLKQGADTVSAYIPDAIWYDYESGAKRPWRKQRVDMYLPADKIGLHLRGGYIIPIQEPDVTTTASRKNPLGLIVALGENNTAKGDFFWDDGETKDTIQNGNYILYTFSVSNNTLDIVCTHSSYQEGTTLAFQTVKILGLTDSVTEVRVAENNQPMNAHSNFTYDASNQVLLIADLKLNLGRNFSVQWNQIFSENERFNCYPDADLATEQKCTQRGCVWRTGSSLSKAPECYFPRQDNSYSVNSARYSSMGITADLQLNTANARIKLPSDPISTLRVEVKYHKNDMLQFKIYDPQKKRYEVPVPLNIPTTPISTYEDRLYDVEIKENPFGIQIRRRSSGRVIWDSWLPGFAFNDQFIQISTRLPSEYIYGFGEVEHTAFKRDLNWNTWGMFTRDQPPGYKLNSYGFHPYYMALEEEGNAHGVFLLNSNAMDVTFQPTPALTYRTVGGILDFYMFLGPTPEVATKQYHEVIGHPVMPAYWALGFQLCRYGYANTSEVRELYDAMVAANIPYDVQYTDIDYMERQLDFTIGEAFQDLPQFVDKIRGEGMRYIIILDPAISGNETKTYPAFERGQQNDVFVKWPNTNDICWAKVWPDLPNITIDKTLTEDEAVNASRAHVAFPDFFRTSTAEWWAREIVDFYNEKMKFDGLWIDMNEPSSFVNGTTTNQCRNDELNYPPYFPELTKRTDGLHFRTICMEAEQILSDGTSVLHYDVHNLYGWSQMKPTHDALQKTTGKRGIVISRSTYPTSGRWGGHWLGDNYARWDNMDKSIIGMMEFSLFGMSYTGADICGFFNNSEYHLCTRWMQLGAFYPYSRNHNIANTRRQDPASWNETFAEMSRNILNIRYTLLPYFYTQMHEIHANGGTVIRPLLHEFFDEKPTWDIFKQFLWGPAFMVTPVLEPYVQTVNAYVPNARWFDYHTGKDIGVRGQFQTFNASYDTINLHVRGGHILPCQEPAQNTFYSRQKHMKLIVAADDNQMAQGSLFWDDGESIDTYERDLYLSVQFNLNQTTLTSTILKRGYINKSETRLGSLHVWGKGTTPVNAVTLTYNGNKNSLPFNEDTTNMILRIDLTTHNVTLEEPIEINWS
# lipase = settings: enzyme involved in digestion of lipids; cited from earlier work
structure (smiles),measurement,setting,value
O=C(O)[C@]1(O)C[C@@H](O)[C@@H](O)[C@H](O)C1 [Quinic acid],food aversion (food intake),"[1]; mice on chow (low fat) diet, high dose 100 mg/(kg*day), 12-18 weeks of age, FIG. 1",caused food aversion
same,food aversion (food intake),"[1]; mice on high fat diet (60% fat), low dose 25 or high dose 100 mg/(kg*day), FIG. 2",did not cause food aversion
same,body weight gain,[2]; mice on high-fat diet,reduced weight gain
same,body weight gain,[2]; mice on low-fat (chow) diet,reduced weight gain
same,"fat deposition (fat mass, Echo-MRI)",[3]; 18 week-old mice on chow diet,reduced fat deposition
same,"fat deposition (fat mass, Echo-MRI)",[3]; 18 week-old mice on high-fat diet,reduced fat deposition
same,carbohydrate metabolism (total carbohydrate oxidation = 4.55*VO2-3.21*VCO2),[4],enhanced
same,energy consumption (oxygen consumption),[4],enhanced energy consumption
same,glucose tolerance,[5],moderately enhanced glucose tolerance
same,insulin response,"[6]; 22 week-old chow-fed mice, i.p. insulin 0.3 U/Kg, FIG. 8",did not alter insulin response
same,basal glycemia,"[6]; 22 week-old high-fat fed mice, FIG. 9",lowered basal glycemia
same,insulin response,"[6]; 22 week-old high-fat fed mice, i.p. insulin 0.75 U/Kg, FIG. 9",did not significantly affect insulin response
same,thermogenic function (rectal temperature),[7],enhanced thermogenic function
same,endurance performance (treadmill),[8],potentiates endurance performance
same,inhibition of α-amylase,α-amylase,poor inhibitor
same,effect on maltase,maltase,no effect
same,effect on sucrase,sucrase,no effect
same,effect on lipase,lipase,no effect
